Test results taken from PubChem BioAssay AID504737 (National Center for Advancing Translational Sciences (NCATS), 2011).

Test system: Caco-2 permeability, B->A Papp, LC-MS/MS
Test: Inhibitors of Bloom's syndrome helicase: Caco-2 Permeability Profiling Assay
Conditions: stronger effect = higher value
Description: Survival of cells and the faithful propagation of the genome depend on elaborate mechanisms of detecting and repairing DNA damage. Treatment of advanced cancer relies on radiation therapy or chemotherapy, which kill cancer cells by causing extensive DNA damage. It is often found, that cancer cells develop resistance to therapy through enhanced activity of DNA repair functions; this has led to an increased interest in developing drugs that interfere with DNA repair, which could sensitize cancer cells to conventional therapy. Bloom syndrome helicase (BLM), is important in resolving abnormal DNA structures formed during replication or homologous recombination. Shutting down the expression of BLM leads to chromosomal instability and higher radiation sensitivity in cultured cells. This permeability assay predicts the in vivo absorption of the lead across the intestinal lining by using a Caco-2 cell line and measuring the lead's […]. […] NIH Chemical Genomics Center [NCGC] NIH Molecular Libraries Probe Production Centers Network [MLPCN] MLSCN Grant: MH087284 PI Name: Dr. Opher Gileadi, Structural Genomics Consortium, University of Oxford, UK
1. […] The T0, LY and T90, LY plates are read by FlexStation 3 at excitation of 485 nm and emission of 535 nm to determine LY permeability. […]

permeability B->A Papp: 1 10^-6 cm/s
SMILES: O=C(Nc1ccc(F)c(C(F)(F)F)c1)Nc1nnc(-c2ccncc2)s1
